For orientation: inhibition means the share of the control response that was lost under treatment. A lower inhibition goes with little suppression. Broadly, the IC50 is the concentration that inhibits the measured activity by half. A high value points to a need for much substance.

Consider twelve molecules from ChEMBL document CHEMBL3853299 (Eur J Med Chem, 2016).

The target in experiment [1] is T1, Prothrombin (Homo sapiens, UniProt P00734). In words: Inhibition of human thrombin at 1 ug/ml pre-incubated for 10 mins before Ac-FVR-AMC substrate addition and measured after 10 mins by fluorescence based assay.
Experiment [2] addresses T1, Prothrombin. In words: Inhibition of human thrombin pre-incubated for 10 mins before Ac-FVR-AMC substrate addition and measured after 10 mins by fluorescence based assay.
For experiment [3], the species on record is Rattus norvegicus. In words: Anticoagulant activity in rat assessed as inhibition of arteriovenous thrombosis at 0.5 mg/ml after 15 mins relative to control. The format is functional.

`CCn1c(CNc2ccc(C(=N)N)cc2)nc2cc(C(=O)N(CCC(=O)O)c3cccc(C)c3)ccc21` returned an inhibition in experiment [1] of more than 90%. In experiment [2], this molecule came in with a concentration for half-maximal inhibition (IC50) of 2.13 nM.
`CCn1c(CNc2ccc(C(=N)N)cc2)nc2cc(C(=O)N(CCC(=O)O)c3ccccc3C)ccc21` gave an inhibition in experiment [1] of more than 90%. Further, it took 3.11 nM to reach half-maximal inhibition in experiment [2] (IC50). In experiment [3], the “inhibition (INH)” value amounted to 77.93%.
Regarding `CCn1c(CNc2ccc(C(=N)N)cc2)nc2cc(C(=O)N(CCC(=O)O)c3ccc(C)cc3)ccc21`, the inhibition in experiment [1] is more than 90%. In experiment [2], this molecule yielded a half-inhibitory concentration (IC50) of 4.98 nM.
For `CCn1c(CNc2ccc(C(=N)N)cc2)nc2cc(C(=O)N(CCC(=O)O)c3c(C)cccc3C)ccc21`, in that order: more than 90% and 3.1 nM.
On the same counts, the results for `CCn1c(CNc2ccc(C(=N)N)cc2)nc2cc(C(=O)N(CCC(=O)O)c3ccccc3)ccc21` are more than 90% and 4.69 nM.
As to `Cn1c(CNc2ccc(C(=N)N)cc2)nc2cc(C(=O)N(CCC(=O)O)c3ccccn3)ccc21` [DABIGATRAN], the “inhibition (INH)” value in experiment [3] was 85.07%.
For the molecule `CCn1c(CNc2ccc(C(=N)N)cc2)nc2cc(C(=O)N(CCC(=O)O)c3ccc(F)cc3F)ccc21`, the inhibition in experiment [1] was more than 90%. For the same molecule, in experiment [2], the half-maximal inhibitory concentration (IC50) was 4.23 nM.
For `CCn1c(CNc2ccc(C(=N)N)cc2)nc2cc(C(=O)N(CCC(=O)O)c3ccc(C)cc3C)ccc21`, in that order: more than 90% and 16.4 nM.
For `CCn1c(CNc2ccc(C(=N)N)cc2)nc2cc(C(=O)N(CCC(=O)O)c3cccc(C)c3C)ccc21`, in that order: more than 90% and 6.59 nM.
On the same counts, the results for `CCn1c(CNc2ccc(C(=N)N)cc2)nc2cc(C(=O)N(CCC(=O)O)c3cc(C)ccn3)ccc21` are more than 90% and 1.62 nM.
On to `CCn1c(CNc2ccc(C(=N)N)cc2)nc2cc(C(=O)N(CCC(=O)O)c3cccc(C)n3)ccc21`, for which the inhibition in experiment [1] is more than 90%. In addition, the midpoint of inhibition in experiment [2], the IC50, lay at 0.96 nM. In experiment [3], the “inhibition (INH)” value was 85.35%.
As to `CCn1c(CNc2ccc(C(=N)N)cc2)nc2cc(C(=O)N(CCC(=O)O)c3ccc(F)c(C)c3)ccc21`, the inhibition in experiment [1] is more than 90%. For the same molecule, the concentration for half-maximal inhibition (IC50) in experiment [2] was 6.27 nM.
